Test results reported in patent US20250134895A1, “METHODS AND COMPOSITIONS FOR TREATING ALPHA-SYNUCLEIN-MEDIATED NEURODEGENERATION” (UNIVERSITY HEALTH NETWORK, priority 2021, published 2025).

Experiments:
HSP70 = HSP70 immunofluorescence in V1S-SV2 primary cortical rat neurons; type: cell-based; conditions: 10 μM
Method: To investigate the mechanism underlying these drug effects, experiments were directed towards the potential involvement of molecular chaperone HSP70. HSP70 is known to play an essential role in suppressing α-synuclein aggregation, and in particular the inhibition of α-synuclein oligomer formation (Tao et al., 2020). To investigate the in silico predictions of HSP70 interactions with top drug candidates from the Cyclica proteome screening, fluorescence intensity was measured in V1 S-SV2 primary cortical rat neurons (FIGS. 15A and E) for potential effects on α-synuclein oligomers.
Pregnant Sprague Dawley rats (E17) were purchased from Charles River. […] Cells were washed three more times before being counter-stained with DAPI for 5 mins and mounted using ProLong Gold mounting medium for fluorescence (ThermoFisher). […] Fluorescence intensity was analysed automatically using Imaris imaging software (Oxford Instruments) by measuring the mean fluorescence intensity of each individual fluorescent neuron using the “surfaces” module. This module detects fluorescence above background threshold in each field of view, identifies a cell body and neuronal projections of each cell, and calculates the mean fluorescence intensity of each fluorescent cell within the field of view. […] The value generated for each neuron was normalized to the mean of fluorescence intensity of neurons treated with vehicle alone. […]

control GFP C. elegans = test: Coiler score and locomotion of control GFP C. elegans; type: in vivo, Caenorhabditis elegans
Method: Animals were synchronized by isolating eggs using alkaline hypochlorite treatment and hatching overnight. Larvae were plated onto NGM agar plates with OP50 and grown for 4 days before recording locomotion. For individual C. elegans recordings, a single adult animal was randomly picked, washed for 1 to 2 minutes in M9 buffer, and then transferred to a fresh NGM plate without food for imaging. Video images were acquired (2 frames per second) for up to 6 minutes using a sCMOS camera (pco.edge, PCO) mounted on a stereomicroscope (Olympus MVX10 MacroView) controlled using the μManager software.^55 A total of 40 individual animals were imaged for each strain. For C. elegans population recordings, ten adult animals were randomly removed using an eyelash pick, washed for 1 minute in M9 buffer, and then transferred to a fresh NGM plate without food, with a ring of copper sulfate solution (150 mM) around the area of recording (a chemorepellent to keep the animals in the recording frame). Exploratory locomotion was recorded using a CCD camera (GX1920, Allied Vision) which was attached to a dissecting stereomicroscope (Leica M165C, 1.0× PlanApo lens). […] Using ImageJ, the displacement, perimeter, and area of each animal was calculated, from which a circularity value was computed using the following formula: circularity=4π(A/P^2), where A is the area of the animal's body and P is the perimeter of the animal's body (both expressed in arbitrary pixel units). […] Using MATLAB (Mathworks), various behavioural metrics including the coiler score were calculated, which is the percentage of frames with a circularity value >0.6. Speed was automatically computed from the ImageJ based WrmTrk plugin as the distance travelled by each animal (in pixels) over the amount of time that it was tracked (in seconds).56 Average speed was determined by calculating the weighted average of each tracked animal's speed within a single population of animals. […]
C. elegans were grown and maintained as previously described (Examples 1-6). […] After 72 hours of drug treatment, animals were randomly picked, washed, and recorded. […]

Structure (SMILES): Nc1nc(NC2CC2)c2ncn([C@H]3C=C[C@@H](CO)C3)c2n1 [Abacavir, abacavir]
- HSP70 fluorescence compared to vehicle control (HSP70): significantly increased
- speed of GFP worms (control GFP C. elegans; 100 μM): no differences
- coiling / coiler score of control GFP animals (control GFP C. elegans; 100 μM of drug): no differences
